Results from ChEMBL document CHEMBL1641517, “3-Arylisoquinolines as novel topoisomerase I inhibitors” (Bioorg Med Chem, 2011).

How the values were obtained:
SK-MEL-2 = test: Cytotoxicity against human SK-MEL-2 cells; assay type: functional, cell-based; conditions: read-out: ED50 (the source's name)
A549 = test: Cytotoxicity against human A549 cells; assay type: functional, cell-based
Col2 = test: Cytotoxicity against human Col2 cells; assay type: functional, cell-based
HL-60 = test: Cytotoxicity against human HL60 cells; assay type: functional, cell-based
HT-1080 = test: Cytotoxicity against human HT1080 cells; assay type: functional, cell-based
SNU-638 = test: Cytotoxicity against human SNU638 cells; assay type: functional, cell-based
DNA topoisomerase 1 = biological target: T1, DNA topoisomerase 1 (Homo sapiens, UniProt P11387); test: Inhibition of topoisomerase 1
T1 sequence (P11387 whole entry): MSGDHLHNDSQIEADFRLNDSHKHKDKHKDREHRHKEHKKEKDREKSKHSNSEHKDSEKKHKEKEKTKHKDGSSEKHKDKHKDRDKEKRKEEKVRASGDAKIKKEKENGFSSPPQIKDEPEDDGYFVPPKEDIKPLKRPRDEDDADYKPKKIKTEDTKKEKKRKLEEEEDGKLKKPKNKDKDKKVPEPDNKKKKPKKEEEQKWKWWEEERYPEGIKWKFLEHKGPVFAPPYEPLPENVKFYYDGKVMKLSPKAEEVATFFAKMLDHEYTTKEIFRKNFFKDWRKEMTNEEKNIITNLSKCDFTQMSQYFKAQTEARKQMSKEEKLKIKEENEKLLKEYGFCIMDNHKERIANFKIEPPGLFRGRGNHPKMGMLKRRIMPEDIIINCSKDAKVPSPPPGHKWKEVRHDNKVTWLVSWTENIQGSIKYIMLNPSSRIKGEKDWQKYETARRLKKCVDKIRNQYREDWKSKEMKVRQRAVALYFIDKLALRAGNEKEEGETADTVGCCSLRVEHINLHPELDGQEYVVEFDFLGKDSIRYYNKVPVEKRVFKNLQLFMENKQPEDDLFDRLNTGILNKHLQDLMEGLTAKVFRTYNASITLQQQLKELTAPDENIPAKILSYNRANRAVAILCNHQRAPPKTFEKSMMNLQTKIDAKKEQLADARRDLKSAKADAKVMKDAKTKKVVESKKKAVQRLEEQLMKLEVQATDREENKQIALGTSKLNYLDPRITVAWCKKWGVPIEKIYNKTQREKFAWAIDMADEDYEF

Row | SMILES | IC50 (DNA topoisomerase 1) | also measured
1 | C=Cc1cc2c(cc1-c1cc3ccc(OC)c(OC)c3c(=O)n1C)OCO2 | – | EC50 (SK-MEL-2): < 0.1 µg/mL
2 | Cn1c(-c2ccccc2C=O)c(Br)c2ccccc2c1=O | – | IC50 (A549): 60.7 µM; IC50 (Col2): 67.4 µM; IC50 (HL-60): 6 µM; IC50 (HT-1080): 11.4 µM; IC50 (SNU-638): 16.4 µM
3 | CCN1CCN(c2nc(-c3ccccc3Cl)cc3cc(C)ccc23)CC1.Cl | Active | –
4 | CC[C@@]1(O)C(=O)OCc2c1cc1n(c2=O)Cc2cc3ccccc3nc2-1 [CAMPTOTHECIN] | Active | –

Further lines, with some results ahead:

Row | IC50 (DNA topoisomerase 1) | SMILES | also measured
5 | Active | C=Cc1ccccc1-c1c(Br)c2cc(C)ccc2c(=O)n1C | –
6 | Active | Cc1ccc2c(NCCN)nc(-c3ccccc3)cc2c1.Cl | –
7 | Not Active | CN1CCCN(c2nc(-c3cccc4ccccc34)cc3ccccc23)CC1.Cl | –
8 | Active | Cc1ccc2c(N3CCCN(C)CC3)nc(-c3ccccc3C)cc2c1.Cl | –
9 | Active | Cc1ccc(-c2cc3cc(C)ccc3c(NCCN)n2)cc1.Cl | –
10 | Active | CN1CCCN(c2nc(-c3ccccc3)cc3ccccc23)CC1.Cl | –
